Results on four molecules are retold here after ChEMBL document CHEMBL5291721, “A preclinical secondary pharmacology resource illuminates target-adverse drug reaction associations of marketed drugs” (Nat Commun, 2023).

The AC50 is the midpoint of the concentration-response curve, whichever way the signal moves. High values mean weaker potency, low ones greater potency.

Test [1] deals with T1, Peroxisome proliferator-activated receptor gamma (Homo sapiens, UniProt P37231).
T1 sequence (P37231 whole entry): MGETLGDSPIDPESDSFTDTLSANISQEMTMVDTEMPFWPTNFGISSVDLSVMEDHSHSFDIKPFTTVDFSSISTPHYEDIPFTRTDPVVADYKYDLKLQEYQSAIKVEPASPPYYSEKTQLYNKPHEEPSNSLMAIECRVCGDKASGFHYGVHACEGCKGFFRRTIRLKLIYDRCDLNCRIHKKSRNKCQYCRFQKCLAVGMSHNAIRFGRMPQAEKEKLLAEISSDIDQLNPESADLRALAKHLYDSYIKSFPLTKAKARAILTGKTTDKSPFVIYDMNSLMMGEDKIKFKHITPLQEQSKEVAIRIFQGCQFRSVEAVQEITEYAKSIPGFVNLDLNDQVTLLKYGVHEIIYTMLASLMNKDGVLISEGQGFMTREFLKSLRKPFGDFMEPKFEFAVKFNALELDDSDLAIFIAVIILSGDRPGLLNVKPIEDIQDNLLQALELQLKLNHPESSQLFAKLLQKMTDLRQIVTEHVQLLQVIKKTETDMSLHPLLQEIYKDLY
Format: functional.

The target in test [2] is Epidermal growth factor receptor (Homo sapiens, UniProt P00533). The class given is functional.
Epidermal growth factor receptor, sequence (P00533 whole entry): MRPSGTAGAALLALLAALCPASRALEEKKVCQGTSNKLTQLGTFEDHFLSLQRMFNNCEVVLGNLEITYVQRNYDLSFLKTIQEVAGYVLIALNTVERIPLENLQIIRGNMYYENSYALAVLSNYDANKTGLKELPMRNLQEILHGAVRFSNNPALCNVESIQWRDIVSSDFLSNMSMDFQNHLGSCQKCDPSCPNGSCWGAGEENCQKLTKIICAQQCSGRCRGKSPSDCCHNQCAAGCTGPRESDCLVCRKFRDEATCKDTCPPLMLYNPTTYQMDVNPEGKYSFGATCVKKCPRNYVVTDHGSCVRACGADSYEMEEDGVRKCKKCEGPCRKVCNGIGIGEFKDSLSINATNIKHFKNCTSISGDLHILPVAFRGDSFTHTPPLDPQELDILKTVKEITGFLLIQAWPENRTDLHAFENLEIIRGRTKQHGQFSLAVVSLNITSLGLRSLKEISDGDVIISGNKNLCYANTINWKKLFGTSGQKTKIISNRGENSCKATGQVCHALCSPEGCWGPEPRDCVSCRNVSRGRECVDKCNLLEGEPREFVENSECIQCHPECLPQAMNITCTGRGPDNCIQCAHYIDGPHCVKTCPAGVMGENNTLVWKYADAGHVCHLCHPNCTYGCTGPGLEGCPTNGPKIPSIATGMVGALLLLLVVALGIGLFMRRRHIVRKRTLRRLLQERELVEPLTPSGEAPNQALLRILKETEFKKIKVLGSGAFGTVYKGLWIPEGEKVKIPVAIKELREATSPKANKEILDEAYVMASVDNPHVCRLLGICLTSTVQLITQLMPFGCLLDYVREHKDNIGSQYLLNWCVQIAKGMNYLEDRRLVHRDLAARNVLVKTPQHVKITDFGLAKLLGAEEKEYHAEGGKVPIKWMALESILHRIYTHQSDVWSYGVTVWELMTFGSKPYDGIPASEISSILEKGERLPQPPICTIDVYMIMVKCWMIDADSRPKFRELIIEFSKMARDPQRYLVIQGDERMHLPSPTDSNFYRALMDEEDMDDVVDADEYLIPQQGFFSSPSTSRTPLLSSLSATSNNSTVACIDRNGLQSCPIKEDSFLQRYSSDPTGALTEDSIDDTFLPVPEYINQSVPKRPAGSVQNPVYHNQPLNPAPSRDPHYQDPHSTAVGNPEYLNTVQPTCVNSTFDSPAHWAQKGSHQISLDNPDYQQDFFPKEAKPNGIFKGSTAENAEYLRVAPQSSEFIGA
Test [3] concerns the target Receptor tyrosine-protein kinase erbB-2 (Homo sapiens, UniProt P04626). The class given is functional.
For test [4], the target named is T2, D(1A) dopamine receptor (Homo sapiens, UniProt P21728).
T2 sequence (P21728 whole entry): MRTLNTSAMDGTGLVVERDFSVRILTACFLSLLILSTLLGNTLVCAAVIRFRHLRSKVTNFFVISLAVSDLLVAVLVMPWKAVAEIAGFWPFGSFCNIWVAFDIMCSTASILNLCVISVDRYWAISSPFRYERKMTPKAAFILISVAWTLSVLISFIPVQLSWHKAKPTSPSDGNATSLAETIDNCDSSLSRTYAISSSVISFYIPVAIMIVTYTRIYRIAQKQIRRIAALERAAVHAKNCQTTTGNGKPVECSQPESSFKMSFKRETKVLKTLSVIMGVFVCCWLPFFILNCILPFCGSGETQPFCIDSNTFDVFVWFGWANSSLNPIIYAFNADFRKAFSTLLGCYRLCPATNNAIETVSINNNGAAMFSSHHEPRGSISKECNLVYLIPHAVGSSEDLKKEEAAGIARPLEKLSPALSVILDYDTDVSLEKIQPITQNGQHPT
The target in test [5] is T3, Amine oxidase [flavin-containing] A (Homo sapiens, UniProt P21397).
T3 sequence (P21397 whole entry): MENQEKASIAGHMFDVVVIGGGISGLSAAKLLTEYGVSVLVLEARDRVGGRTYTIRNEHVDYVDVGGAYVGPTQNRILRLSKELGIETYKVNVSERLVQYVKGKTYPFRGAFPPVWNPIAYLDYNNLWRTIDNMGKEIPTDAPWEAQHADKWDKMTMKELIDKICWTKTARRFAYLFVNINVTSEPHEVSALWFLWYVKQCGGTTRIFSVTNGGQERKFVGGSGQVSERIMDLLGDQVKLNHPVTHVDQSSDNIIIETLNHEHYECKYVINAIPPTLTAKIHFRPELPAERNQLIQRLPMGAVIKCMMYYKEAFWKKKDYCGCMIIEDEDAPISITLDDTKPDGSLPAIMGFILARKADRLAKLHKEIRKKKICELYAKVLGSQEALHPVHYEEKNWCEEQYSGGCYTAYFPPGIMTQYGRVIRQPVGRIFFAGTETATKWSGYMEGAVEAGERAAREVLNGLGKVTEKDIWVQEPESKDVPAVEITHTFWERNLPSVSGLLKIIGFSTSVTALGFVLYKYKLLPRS
The class given is functional.

Another test concerns the target T4, Thromboxane A2 receptor (Homo sapiens, UniProt P21731).
T4 sequence (P21731 whole entry): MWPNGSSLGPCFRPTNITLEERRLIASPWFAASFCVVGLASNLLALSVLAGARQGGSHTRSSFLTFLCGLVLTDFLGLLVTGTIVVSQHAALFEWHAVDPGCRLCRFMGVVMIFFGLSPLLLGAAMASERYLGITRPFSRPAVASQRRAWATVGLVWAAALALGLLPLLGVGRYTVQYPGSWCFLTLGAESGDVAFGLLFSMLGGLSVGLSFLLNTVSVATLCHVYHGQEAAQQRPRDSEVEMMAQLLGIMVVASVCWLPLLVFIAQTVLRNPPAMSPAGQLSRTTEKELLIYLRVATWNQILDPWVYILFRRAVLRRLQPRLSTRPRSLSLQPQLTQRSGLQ
The class given is functional.

Test [6] addresses T2, D(1A) dopamine receptor. The source holds these as a separate data set.
Note: assay procedure not described here.

Receptor tyrosine-protein kinase erbB-2, sequence (P04626 whole entry): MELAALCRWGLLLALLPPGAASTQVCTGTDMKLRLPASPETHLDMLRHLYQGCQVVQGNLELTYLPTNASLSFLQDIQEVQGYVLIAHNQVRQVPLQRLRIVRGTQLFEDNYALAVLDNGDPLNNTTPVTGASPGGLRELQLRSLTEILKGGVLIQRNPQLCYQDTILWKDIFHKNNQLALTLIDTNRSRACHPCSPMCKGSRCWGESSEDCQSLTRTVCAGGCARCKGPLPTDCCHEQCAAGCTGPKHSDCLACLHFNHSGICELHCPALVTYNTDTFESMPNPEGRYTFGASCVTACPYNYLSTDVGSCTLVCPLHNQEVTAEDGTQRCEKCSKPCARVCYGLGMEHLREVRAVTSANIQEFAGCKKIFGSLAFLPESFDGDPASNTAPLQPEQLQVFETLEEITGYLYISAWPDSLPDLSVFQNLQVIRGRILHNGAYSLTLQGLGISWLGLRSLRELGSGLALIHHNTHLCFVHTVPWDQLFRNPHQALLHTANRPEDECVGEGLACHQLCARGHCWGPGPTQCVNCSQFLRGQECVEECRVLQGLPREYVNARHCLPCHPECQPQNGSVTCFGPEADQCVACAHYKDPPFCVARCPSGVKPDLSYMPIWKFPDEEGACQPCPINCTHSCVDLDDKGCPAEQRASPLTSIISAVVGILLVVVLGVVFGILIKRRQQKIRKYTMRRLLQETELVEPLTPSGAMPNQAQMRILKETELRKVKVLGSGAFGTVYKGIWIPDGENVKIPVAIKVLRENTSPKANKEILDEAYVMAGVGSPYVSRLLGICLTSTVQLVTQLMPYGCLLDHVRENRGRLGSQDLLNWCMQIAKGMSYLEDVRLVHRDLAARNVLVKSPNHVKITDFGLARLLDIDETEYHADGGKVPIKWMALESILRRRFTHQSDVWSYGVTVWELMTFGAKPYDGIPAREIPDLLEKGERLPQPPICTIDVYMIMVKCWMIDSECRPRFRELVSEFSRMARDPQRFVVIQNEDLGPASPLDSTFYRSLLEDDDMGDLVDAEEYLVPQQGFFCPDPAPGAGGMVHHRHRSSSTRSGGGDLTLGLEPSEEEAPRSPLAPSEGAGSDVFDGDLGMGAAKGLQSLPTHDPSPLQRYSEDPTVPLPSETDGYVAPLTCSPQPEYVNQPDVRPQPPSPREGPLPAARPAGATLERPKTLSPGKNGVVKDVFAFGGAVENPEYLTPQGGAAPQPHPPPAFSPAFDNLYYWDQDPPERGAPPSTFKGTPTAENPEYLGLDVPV

In test [1], `Brc1c(NC2=NCCN2)ccc2nccnc12` [BRIMONIDINE] gave an AC50 of over 30 µM. In the case of `CC(CC1c2ccccc2CCc2ccccc21)CN(C)C` (configuration not stated) [BUTRIPTYLINE], the half-maximal activity concentration (AC50) in test [2] and in test [3] was over 30 µM throughout. As to `CO[C@]12C[C@@H](COC(=O)c3cncc(Br)c3)CN(C)[C@@H]1Cc1cn(C)c3cccc2c13` [NICERGOLINE], the AC50 on D(1A) dopamine receptor [4] is 0.393 µM; in test [5], over 30 µM. In the case of THIMEROSAL, the AC50 was over 30 µM on Thromboxane A2 receptor and 10 µM on D(1A) dopamine receptor [6].
